What all share (assay type): in vivo
Assay [1] has as its system stress-induced (immersion) ulcers. Nature of the assay: Restraint--Immersion Stress Ulcers in the Rat (Wilson). The procedure:
Male "Sprague--Dawley Derived" rats (Locke--Erickson Laboratories, Maywood, Illinois) weighing 150 to 200 g, are fasted, and provided drinking water for 16 to 19 hours prior to the start of the study. At 0 time the rats are dosed orally with compound or vehicle, (approximately 0.5 ml) and then secured in a Bollman-type restraining cage. Five minutes after dosing, the animals are immersed (tail downward) to "shoulder level" into a 22° C. water bath for 100 minutes. At the end of this period, the animals are decapitated and their stomachs promptly excised with about 5 mm each of esophagus and duodenum.
With a blunt tipped scissor the stomach is opened along the greater curvature, starting at the tip of the rumen through the glandular mucosa into the pylorus and opening the bit of duodenum along its amesenteric border. Debris is removed from stomach by rinsing in saline at room temperature and gently blotting it with gauze or filter paper. The stomach is then spread out, mucosal surface upward on a 3×5 file card or similar material.
With an illuminated magnifier the lesions are counted (for total lesion count) and scored (for weighted score) after the method described by G. Osterloh, et al., Arzneimittel-Forschung, 16 (8a):901910, August 1966. The score for each lesion is given in the following table, modified from the paper.
Very large (area) non-perforating lesions are frequently seen. These are measured as so many 3 mm diameter ulcers and scored as multiples of #7.
Rats were dosed by gavage with compound or vehicle and submerged into a
22° C. water bath for 100 minutes. At the end of this period,
animals were sacrificed and their stomachs removed and scored for ulcers.

The test system of assay [2] is continuous respiratory spasm induced by pilocarpine. Nature of the assay: Bronchodilator Activity (Pilocarpine Assay). Particulars: Canis lupus familiaris, inhaled or nasal, dog, aerosol, 3.2 mg/ml. The procedure: The PGE compounds of this invention also have bronchodilator activity as determined in a test using dogs anesthetized, artificially ventilated and submitted to a continuous respiratory spasm induced by pilocarpine. Mongrel dogs of either sex weighing between 5 and 10 kg are used. They are premedicated with morphine HCl by subcutaneous injection at 1.5 mg/Kg. An intravenous perfusion of 5% (W/V) chloralose is started 1/2 hour after the morphine injection in such a way that 60 mg/Kg are administered within 15 minutes. After completion, a continuous perfusion of 10 mg/Kg hour is maintained throughout the experiment. The dogs are artificially ventilated by means of a Starling pump at a rate of 20 breaths/minute. The volume is adjusted according to the weight of the animal. [Kleinman and Radford, J. Appl. Physiol., 19, 360 (1964)]. All the measurements are made with the dogs positioned supine in a heated, V-shaped table. Curarization is obtained by succinylcholine chloride using a starting injection of 3 mg/Kg lasting 3 minutes, followed by a continuous perfusion of 0.1 mg/Kg/minute. The respiratory spasm is induced by a starting injection of 400 mcg/Kg of pilocarpine HCl lasting 5 minutes. An increase or decrease in the dose of pilocarpine HCl may occur as a function of the observed effect on airway's resistance. A 15 minute delay is observed before the start of a continuous perfusion of pilocarpine HCl at a dose of 4 mcg/Kg/minute to maintain a constant spasm during the test. A metallic cannula is inserted and fixed, after tracheotomy, into the upper part of the trachea. The two cephalic veins and the two femoral veins are catheterized to inject the various agents. The femoral artery is catheterized to measure the systemic blood pressure. An esophageal balloon (11 cm×2.5 cm) is inserted into the lower third of the oesophagus to measure the endothoracic pressure. The measurement of air flow is made with a […] pneumotachograph connected to the tracheal tube. The transpulmonary pressure is measured as follows: The tracheal cannula is equipped with a stainless steel axial tube (1.5 mm) which is closed at its distal end and projected 2.5 cm beyond the end of the cannula. Three holes with a diameter of one mm are pierced on this latter segment. This tube, which is used to measure the tracheal pressure, is connected to one of the two chambers of a Sanborn 267 B/C differential transducer. The other chamber is connected to the esophageal balloon by means of a polyethylene catheter of the same length and characteristics as the balloon's. The airway's resistance, expressed in cm of water/liter/second, is measured by subtracting from the electrical equivalent of the transpulmonary pressure, a voltage proportional to the flow so as to synchronize the pressure and volume signals on the oscilloscope [Mead and Whittenberger, J. Appl. Physiol, 5, 779 (1953)]. The test compounds are administered by an Aerosol® route. The micronebulizer of a Bird Mark 7 respirator is fitted on the metallic cannula just after the pneumotachograph. The "puff" of the test compound, in Aerosol® is driven by a 2 Kg/cm^2 pressure, allowed into the micronebulizer just during one inspiration cycle. The micronebulizer is fitted on the respiratory tube only during the "puff". It is weighed just before and just after administration to determine the amount of test compound administered.

Assay [3] deals with bronchospasms elicited by histamine. The experiment in a line: Bronchodilator Activity (Konzett Assay), histamine. Particulars: Cavia porcellus; guinea pig, intravenous, spasmogen histamine, three logarithmic cumulative doses; read-out: ED50. The procedure: (§1) The bronchodilator activity of some of the PGE compounds of this invention is determined in guinea pigs against bronchospasms elicited by intravenous injections of 5-hydroxytryptamine, histamine or acetylcholine by the Konzett procedure. [See J. Lulling, P. Lievens, F. El Sayed and J. Prignot, Arzneimittel-Forschung, 18, 995 (1968)].
(§2) In the Table B which follows, bronchodilator activity for representative compounds of this invention against one or more of the three spasmogenic agents is expressed as an ED50 determined from the results obtained with three logarithmic cumulative intravenous doses.

Assay [4] has as its system gastric acid secretion. Nature of the assay: Gastric Acid Secretion in the Dog Fistula. To be noted: 10 μg/kg I.G.; for cumulative two-hour gastric secretion, acid: n = 6, control 17.2 ± 1.6; for cumulative two-hour gastric secretion, volume: n = 6, control 130 ± 11. The protocol:
Three mongrel dogs (20-32 kg) were surgically prepared with stainless steel cannulae. These were inserted into the most dependent portion of the ventral stomach and exteriorized through the abdomen for the collection of gastric secretions. The dogs were trained to stand quietly in a Pavlov support and were conscious during subsequent secretory studies.
^a After a 26hour fast, gastric acid secretion was submaximally
stimulated, beginning 45 minutes after treatment, using a constant
intravenous infusion of histamine acid phosphate ([…]).
^b Each of three dogs was treated six to seven times with vehicle
(control) and one to three times with each compound; n is the number of
experiments conducted with each treatment.
^c Total secretion from 45-120 minutes following intragastric (I.G.)
administration of drugs or vehicle. Mean effects of treatment were
compared to control means by Student's t test. Compound A is […]

For assay [5], the system named is bronchospasms elicited by acetylcholine. The experiment in a line: Bronchodilator Activity (Konzett Assay), acetylcholine. To be noted: Cavia porcellus; guinea pig, intravenous, spasmogen acetylcholine, three logarithmic cumulative doses; read-out: ED50. The procedure: as §1, §2
The test system of assay [6] is bronchospasms elicited by 5-hydroxytryptamine. The experiment in a line: Bronchodilator Activity (Konzett Assay), 5-hydroxytryptamine. To be noted: Cavia porcellus; guinea pig, intravenous, spasmogen 5-hydroxytryptamine, three logarithmic cumulative doses; read-out: ED50. The procedure: as §1, §2
Where [7] appears, read: 5 min, 5 min. after drug administration.
[8] abbreviates: 0.5 h, 30 min. after drug administration.
Where [9] appears, read: 1 h, 60 min. after drug administration.

Molecules are shown by their SMILES.

Take `CCCCC(C)(O)CC=CC1C(O)CC(=O)C1CCCCCCC(=O)CO` (centres unmarked): the “% Reduction of ulcer score” value in assay [1] (3 mg/Kg P.O.) was found to be 62%; in assay [1] (16 mg/Kg P.O.), 85%; in assay [1] (80 mg/Kg P.O.), 82%; in assay [1] (200 mg/Kg P.O.) it was 67%; in assay [1] (500 mg/Kg P.O.), 82%. Moreover, the inhibition at 3200 µg/mL in assay [2] (setting [7]) was found to be 90%; in assay [2] (setting [8]) it was 70%; in assay [2] (setting [9]), 45%. The ED50 in assay [3] was determined as 0.943 µg/kg; in assay [5], 4.7 µg/kg; in assay [6], 3 µg/kg. Further, in assay [4], the “cumulative two-hour gastric secretion, acid” value worked out at 6.9 ± 2.8 mEq H^+. For the same molecule, the “cumulative two-hour gastric secretion, volume” value in assay [4] is 59 ± 19 mL.

For `CCCCC(C)(O)CC=CC1C(O)CC(=O)C1CC=CCCCC(=O)CO` (stereo not drawn) [1,9-dioxo-11α,16-dihydroxy-16-methyl-1-hydroxymethyl-5-cis-13-trans-prostadiene], the “% Reduction of ulcer score” value in assay [1] (200 mg/Kg P.O.) came out at 85%; in assay [1] (500 mg/Kg P.O.) it was 95%. The inhibition at 3200 µg/mL in assay [2] (setting [7]) came out at 90%; in assay [2] (setting [8]) it was 90%; in assay [2] (setting [9]), 70%. Moreover, the figures for the ED50 in assay [3], in assay [5] and in assay [6] were 3 µg/kg, 6.4 µg/kg and 3.81 µg/kg, respectively. The “cumulative two-hour gastric secretion, acid” value in assay [4] came out at 7.5 ± 2.1 mEq H^+. For the same molecule, the “cumulative two-hour gastric secretion, volume” value in assay [4] amounted to 76 ± 16 mL.

The term inhibition denotes the relative decrease from the control value, in per cent. Lower therefore signals little suppression. Usually ED50 stands for the dose that gives a 50% effect, or the effect in half of the subjects.

The values are drawn from patent US4254285A, “1-Hydroxymethyl-1-1-oxo prostane derivatives of the E and F series” (American Cyanamid Company, priority 1979, dated 1981).
